According to US12372525B2 (priority 2013, dated 2025):

Experiments:
[1] = biological target: purified influenza H3N2 neuraminidase (Influenza A virus, UniProt O91745); assay type: biochemical
[2] = tested on: seasonal flu; settings: in vivo; cited from earlier work
[3] = tested on: A/Perth/211/2001 WT; assay type: biochemical

purified influenza H3N2 neuraminidase, sequence (O91745 whole entry, looked up): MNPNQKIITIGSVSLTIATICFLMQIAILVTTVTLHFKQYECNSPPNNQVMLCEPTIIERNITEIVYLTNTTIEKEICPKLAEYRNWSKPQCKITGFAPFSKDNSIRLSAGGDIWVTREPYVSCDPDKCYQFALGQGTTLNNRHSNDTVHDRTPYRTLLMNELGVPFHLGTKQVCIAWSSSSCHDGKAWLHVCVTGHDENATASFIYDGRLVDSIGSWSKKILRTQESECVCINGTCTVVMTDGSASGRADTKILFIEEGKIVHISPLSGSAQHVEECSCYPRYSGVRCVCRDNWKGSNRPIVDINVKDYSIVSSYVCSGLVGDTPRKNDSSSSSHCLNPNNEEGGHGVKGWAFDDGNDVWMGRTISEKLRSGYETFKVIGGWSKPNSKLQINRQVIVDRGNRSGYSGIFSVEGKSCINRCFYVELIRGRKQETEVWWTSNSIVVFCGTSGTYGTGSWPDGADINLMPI

Compound | level of detection (LOD) of neuraminidase with this substrate [1] | effective in prophylaxis against seasonal flu [2] | Inhibition value [3]
CC(=O)NC1C(O)CC(Oc2ccc(CCC(=O)C(F)(F)F)cc2)(C(=O)[O-])OC1C(O)C(O)CO.[Na+] (stereo not shown) [NANA-CF3] | about 10 pM | – | –
CCOC(=O)C1=C[C@@H](OC(CC)CC)[C@H](NC(C)=O)[C@@H](N)C1 [Oseltamivir] | – | 80% | 1.48/1.34
CC(=O)N[C@H]1[C@H]([C@H](O)[C@H](O)CO)OC(C(=O)O)=C[C@@H]1N=C(N)N [Zanamivir] | – | 80% | –
